The results in this text go back to the SangsterLogP compilation.

Each structure is given as a SMILES string.

Consider `N#CCc1ccccc1`, for which the logP (commonly a log measure of how a compound divides between an organic and an aqueous phase) turned out to be 1.56.
For `CC(=O)Nc1ccccc1C(=O)O` the value was 1.88.
Regarding `COC(=O)C(C#N)=NNc1cc(Cl)c(Cl)c(Cl)c1`, the logP came to 5.22.
For `Nc1ccc(C(=O)O)c(O)c1` the value was 0.89.
Turning to `C1CO1`, the logP is -0.3.
The same measure for `COc1ccc(CC(C)N)c(OC)c1` (stereo unspecified): 1.75; for `CCN(CC)CC`: 1.45; for `CC(N)C(O)c1ccccc1` (stereo unspecified): 0.67.
For `C[C@@H]1C[C@H]2[C@@H]3CCC4=CC(=O)C=C[C@]4(C)[C@@]3(F)[C@@H](O)C[C@]2(C)[C@@]1(O)C(=O)CO` the value was 1.83; for `O=NN(CCCl)C(=O)NC1CCCCC1`, 2.83.
The same measure for `O=S(=O)(c1ccccc1)c1ccccc1`: 2.4.
`Cc1cccc(S(N)(=O)=O)c1`: the logP came out at 0.85.
For `COc1cccc(CC(C)N)c1OC` (stereo unspecified) the value was 1.49; for `COc1ccccc1CO`, 1.13.
For `Nc1ccc2ncccc2c1` the value was 1.28; for `CNC(=O)Oc1ccc(C)cc1`, 1.66.
The molecule `CN(C)C(=O)COc1ccccc1` gave a logP of 0.8.
For `Cc1ccnc(NS(=O)(=O)c2ccc(N)cc2)n1` the value was 0.14; for `O=C1CCCC(=O)N1`, 1.9.
The same measure for `Cc1ccc2c([N+](=O)[O-])cc[n+]([O-])c2c1`: 1.42; for `COc1ccc2[nH]ccc2c1`: 2.06.
For `Cc1ccccc1N` the value was 1.32.
For `Cc1cc([N+](=O)[O-])c2ccccc2[n+]1[O-]`, the logP stood at 1.25.
In the case of `COc1ccccc1C(=O)O`, the logP was 1.59.
The same measure for `C#C[C@]1(O)CC[C@H]2[C@@H]3CCc4cc(O)ccc4[C@H]3CC[C@@]21C`: 3.67; for `CCCCCl`: 2.64; for `C=CCNCC=C`: 1.11.
For `C1CCCC1` the value was 3; for `O=C(O)COc1ccc(Cl)cc1Cl`, 2.81.
For `OCC(Cl)(Cl)Cl` the value was 1.42.
The molecule `CC[C@@H]1C(=O)OC[C@@H]1Cc1cncn1C` returned a logP of 0.12.
The same measure for `OCC=Cc1ccccc1`: 1.95; for `N#Cc1ccc(S(N)(=O)=O)cc1`: 0.23; for `O=[N+]([O-])c1cc[n+]([O-])c2c(F)cccc12`: 1.
Regarding `COC(=O)C(C#N)=NNc1ccccc1`, the logP is 2.59.
For `Cc1ccccc1C` the value was 3.12; for `O=[N+]([O-])c1cc(Cl)c(O)c(Cl)c1`, 2.94.
For `ClC=C(Cl)Cl` the value was 2.42; for `CCCN(CC)CCC`, 2.68.
Molecule `CC(Oc1ccccc1)C(=O)NC1C(=O)N2C1SC(C)(C)C2C(=O)O` (stereo unspecified) displayed a logP of 2.2.
For `Brc1ccc2ncccc2c1` the value was 2.83.
The same measure for `O=c1cccccc1O`: 0.53.
With `O=c1[nH]c2ccccc2n1CCCN1CCC(n2c(=O)[nH]c3cc(Cl)ccc32)CC1`, the logP is 3.9.
Consider `CC(=O)C(C#N)=NNc1cccc(Cl)c1`, for which the logP is 3.9.
Regarding `CC(=O)S[C@@H]1CC2=CC(=O)CC[C@]2(C)[C@H]2CC[C@@]3(C)[C@@H](CC[C@@]34CCC(=O)O4)[C@H]12`, the logP is 2.78.
The same measure for `CC(=O)N(C)c1ccccc1`: 1.12.
The same measure for `COc1ccccc1O`: 1.32.
For `CC(=O)c1ccc(OCC(=O)O)cc1` the value was 0.87; for `Oc1c(F)c(F)c(F)c(F)c1F`, 3.23; for `CN1c2ccccc2C=CC1O` (stereo unspecified), 1.45.
Take `Fc1c(F)c(F)c(F)c(F)c1F`: the logP worked out at 2.55.
The same measure for `O=[N+]([O-])c1cncn1CCN1CCOCC1`: 0.07; for `O=[N+]([O-])/C=C/c1ccccc1`: 2.11.
The same measure for `CCCCc1ccccc1`: 4.38; for `O=C(O)c1ccc(Oc2ccccc2)cc1`: 3.91; for `O=[N+]([O-])c1cc2ccccc2[n+]([O-])c1`: 0.56.
The same measure for `Cn1c([N+](=O)[O-])cnc1/C=C/c1ccnc(N)n1`: 0.85.
Regarding `c1cc2c3c(cccc3c1)CC2`, the lipophilicity (logP) turned out to be 3.92.
For `O=C1NC(=O)C(c2ccccc2)(c2ccccc2)N1` the value was 2.47; for `Nc1ccccc1[N+](=O)[O-]`, 1.85; for `CCCCCOC(N)=O`, 1.35.
The same measure for `COC(=O)C(C#N)=NNc1cc(C(F)(F)F)ccc1[N+](=O)[O-]`: 3.44; for `O=C(O)c1cc(I)cc(I)c1O`: 4.56; for `FC(F)(F)c1ccc2cccnc2c1`: 3.02.
For the molecule `O=C(O)COc1cccc(Br)c1`, the logP worked out at 2.22.
For `O=C1CNC(=O)N1` the value was -1.69.
In turn, `CNC(=O)Oc1cccc(C(C)=O)c1` came in with a logP of 0.9.
In the case of `Cc1ccc2ccccc2c1`, the logP came out at 3.86.
On to `NNC(=O)c1ccnc(F)c1`, for which the logP was -0.11.
The same measure for `CC(C)NC(=O)C=Cc1ccc([N+](=O)[O-])o1`: 1.34; for `N#Cc1ccc(OCC(=O)O)cc1`: 0.93; for `O=C(NC(CO)C(O)c1ccc([N+](=O)[O-])cc1)C(F)F` (stereo unspecified): 0.42.
The same measure for `CCOC(=O)C(C#N)=NNc1cc(Cl)cc(Cl)c1`: 3.82; for `CCCN(CCC)N=O`: 1.36; for `Cc1ccc2[nH]ccc2c1`: 2.68.
As for `Cc1cc(N)c(C)c(O)c1C(=O)O`, the logP is 3.38.
For `CC1(C)SC2C(NC(=O)C(O)c3ccccc3)C(=O)N2C1C(=O)O` (stereo unspecified) the value was 1.4; for `Oc1ccc(Br)cc1Br`, 3.22.
The same measure for `C[C@]12C[C@H](O)[C@H]3[C@@H](CCC4=CC(=O)CC[C@@]43C)[C@@H]1CC[C@@H]2C(=O)CO`: 1.94; for `CCCCOc1ccc(CC(=O)NO)cc1`: 2.08.
For `CC(N)C(=O)O` (racemic) the value was -2.96; for `CCCc1ccc(S(N)(=O)=O)cc1`, 1.64; for `CC(=O)c1ccc(O)cc1`, 1.35.
As to `NCC(F)(F)F`, the logP came out at 0.24.
For `COc1ccc(N)cc1` the value was 0.95; for `Nc1ccc(C(F)(F)F)cc1`, 1.95.
`CCCN(CCC)CCC` returned a logP of 2.79.
`Nc1ccc2ccccc2c1`: the logP was 2.28.
For `O=C1CC2OCC=C3CN4CC[C@]56c7ccccc7N1C5[C@H]2[C@H]3C[C@H]46` (stereo partly specified) the value was 1.93.
The same measure for `O=C(O)Cc1ccc([N+](=O)[O-])cc1`: 1.39.
For `Nc1ccc(S(=O)(=O)Nc2ncccn2)cc1`, the logP was -0.09.
For `O=[N+]([O-])c1cccc(O)c1` the value was 2; for `OCC1OC(n2cnc3c(S)ncnc32)C(O)C1O` (stereo unspecified), -0.6; for `CCCCc1ccc(C(=O)O)nc1`, -1.29.
For `O=C(O)c1ccc(F)cc1` the value was 2.07.
The same measure for `O/N=C/c1ccccc1`: 1.75.
In turn, `CC(C)(C)[N+](=O)[O-]` had a logP of 1.17.
Regarding `CCC(=O)c1ccccc1`, the logP came to 2.19.
In turn, `NC(=O)c1cc([N+](=O)[O-])cc([N+](=O)[O-])c1` showed a logP of 0.83.
In turn, `c1cncc([C@@H]2CCCCN2)c1` came in with a logP of 0.97.
Consider `Cl[C@H]1[C@H](Cl)[C@@H](Cl)[C@@H](Cl)[C@H](Cl)[C@H]1Cl`, for which the logP was found to be 3.72.
For `O=C(O)c1ncccc1O` the value was -1.27; for `Oc1ccccn1`, -0.58; for `O=C(c1ccccc1)c1ccc(O)cc1`, 3.07.
Consider `Cc1ccc(C(C)C)cc1`, for which the logP came out at 4.1.
The same measure for `Nc1ccccn1`: 0.48; for `Cc1cc(C)c(C)cc1C`: 4; for `Cc1cc2ccccc2[nH]1`: 2.53.
The same measure for `OCc1cccc(O)c1`: 0.49; for `CC(C)C(=O)C(C#N)=NNc1ccc(Cl)cc1C(F)(F)F`: 5.67; for `Clc1ccccn1`: 1.22.
For `CSc1nnc(C)c(=O)n1N`, the logP is -0.16.
The same measure for `CC(C)(C)NCC(O)COc1nsnc1N1CCOCC1` (stereo unspecified): 1.83.
`CN(C)C(=O)Nc1ccc(Cl)cc1`: the logP turned out to be 1.94.
The molecule `CC1=c2[nH]c3c(c2CCN1)C=CC(=O)C=3` gave a logP of 2.19.
For the molecule `NC(=O)CCCNC(=C1C=C(F)C=CC1=O)c1ccc(Cl)cc1`, the logP amounted to 3.06.
`O=C(O)COc1ccccc1`: the logP worked out at 1.34.
For `Oc1ccc2ccccc2c1`, the logP turned out to be 2.7.
The same measure for `CCCCNCCCC`: 2.83; for `CS(=O)(=O)c1ccccc1`: 0.5.
For `N#Cc1ccccc1` the value was 1.56; for `O=C(NC(CO)C(O)c1ccc([N+](=O)[O-])cc1)C(Br)(Br)Br` (stereo unspecified), 2.17.
`CCc1cccc2ccccc12` showed a logP of 4.4.
As for `COc1ccccc1C(N)=O`, the logP came to 0.86.
Regarding `NS(=O)(=O)c1ccc(Cl)cc1`, the logP came out at 1.15.
The same measure for `O=C(O)c1cccnc1`: 0.36; for `Nc1nc(O)c2ncn([C@H]3CC[C@@H](CO)O3)c2n1`: -1.01.
The same measure for `CCC(C)c1ccccc1OC(=O)NC` (stereo unspecified): 2.78; for `Nc1ncnc2c1ncn2[C@H]1CC[C@@H](CO)O1`: -0.25.
For `CCS(=O)(=O)CCn1c([N+](=O)[O-])cnc1C` the value was -0.35.
`CC(C)n1nnc2ccccc21`: the logP came to 1.98.
Regarding `CCc1ccccc1N`, the logP was found to be 1.74.
The same measure for `Cn1cnc([N+](=O)[O-])c1Sc1ncnc2nc[nH]c12`: 0.1.
As for `O=C(O)COc1ccccc1Br`, the logP is 2.04.
In the case of `CN(C)C(=O)c1ccccc1`, the logP came to 0.62.
For `CCCCCCC(C)=O`, the logP turned out to be 2.37.
The same measure for `S=C=Nc1ccccc1`: 3.28; for `Oc1ccccc1I`: 2.65.
For `OCC(O)CO` the value was -1.76; for `NS(=O)(=O)c1cccc2cccnc12`, 0.42.
On to `O=C1NS(=O)(=O)c2ccccc21`, for which the logP worked out at 0.91.
